Assay results: PMC11395612, “DPP-IV Inhibitory Peptide against In Vitro Gastrointestinal Digestion Derived from Goat’s Milk Protein and Its Activity Enhancement via Amino Acid Substitution” (Foods, 2024)
Entries after “also recorded” stand apart in the source; their conditions may differ. Like-named read-outs stand apart in the source and are kept apart here.

How the values were obtained:
[1] = test system: Caco-2 cells; conditions: 4 h
[2] = molecular target: T1, DPP-IV (Homo sapiens, UniProt P27487); assay type: cell-based
T1 construct: host or cells: Caco-2 cells

[3] = test system: DPP-IV; conditions: MBPDB database assignment, cited from earlier work
Excerpt: Among them, the DPP-IV inhibitory peptide fragment derived from milk serum albumin may be rapidly degraded in vivo due to low structural stability, leading to loss of activity.

[4] = In vitro simulated gastrointestinal digestion of goat milk; assay type: in vitro ADME; conditions: in vitro gastric (pepsin, pH 2.0, 60 min) then intestinal digestion (pH 7.0), 30 min, LC-MS/MS
Experimental: Goat milk was subjected to simulated gastrointestinal digestion according to the in vitro digestion protocol described by Xue et al.. Artificial gastric fluid from goat milk was mixed in a 1:1 ratio, followed by the addition of 120 μL CaCl2(H2O)2. The pH of the resulting solution was adjusted to 2.0 using HCl. The solution was then divided into centrifuge tubes, with each tube containing 20 mL of the solution. The tubes were placed in a water bath (FYDKH3, Shanghai Hengyi Scientific Instrument Co., Shanghai, China) and subjected to shock for five min for pre-heating. Subsequently, pepsin was added and dissolved in simulated gastric fluid (SGF). After preheating, 1 mL enzyme solution was added to each tube to initiate the in vitro digestion process. Digestion time intervals were established at 0, 10, 30, 60, 90, and 120 min. Additionally, the pH of the digestion solution was adjusted to 8.0, using NaOH solution to deactivate the enzyme following digestion. After gastric digestion for 60 min followed by enzyme inactivation, an artificial intestinal solution was added at a ratio of 1:1. The subsequent experimental procedures were identical to those previously described. The pH of the solution was adjusted to 7.0. Digestion time intervals were set at 0, 0.5, 5, 10, 30, and 60 min. […]
LC-MS/MS was determined as described by Sun et al.. […]

[5] = test system: DPP-IV; conditions: ref [32], cited from earlier work
Excerpt: In the process of in vitro digestion, potential active peptide fragments harboring in food proteins may be degraded by digestive enzymes, but the peptide fragment selected in this study still has DPP-IV inhibitory activity after digestion, which is a digestion-resistant peptide fragment with a molecular weight of about 1kDa. Some reported that DPP-IV inhibitory peptides tend to be active peptides with 2–8 amino acid residues and a molecular weight of less than 1 kDa. The DPP-IV inhibition and metabolic stability of casein-derived peptide Val-Pro-Tyr-Pro-Gln (VPYPQ) and its fragments, an ...

[6] = ref [23] in Table 1 for VGINYWLAHK and ILDKVGINYWLAHK

T1 sequence (P27487 whole entry): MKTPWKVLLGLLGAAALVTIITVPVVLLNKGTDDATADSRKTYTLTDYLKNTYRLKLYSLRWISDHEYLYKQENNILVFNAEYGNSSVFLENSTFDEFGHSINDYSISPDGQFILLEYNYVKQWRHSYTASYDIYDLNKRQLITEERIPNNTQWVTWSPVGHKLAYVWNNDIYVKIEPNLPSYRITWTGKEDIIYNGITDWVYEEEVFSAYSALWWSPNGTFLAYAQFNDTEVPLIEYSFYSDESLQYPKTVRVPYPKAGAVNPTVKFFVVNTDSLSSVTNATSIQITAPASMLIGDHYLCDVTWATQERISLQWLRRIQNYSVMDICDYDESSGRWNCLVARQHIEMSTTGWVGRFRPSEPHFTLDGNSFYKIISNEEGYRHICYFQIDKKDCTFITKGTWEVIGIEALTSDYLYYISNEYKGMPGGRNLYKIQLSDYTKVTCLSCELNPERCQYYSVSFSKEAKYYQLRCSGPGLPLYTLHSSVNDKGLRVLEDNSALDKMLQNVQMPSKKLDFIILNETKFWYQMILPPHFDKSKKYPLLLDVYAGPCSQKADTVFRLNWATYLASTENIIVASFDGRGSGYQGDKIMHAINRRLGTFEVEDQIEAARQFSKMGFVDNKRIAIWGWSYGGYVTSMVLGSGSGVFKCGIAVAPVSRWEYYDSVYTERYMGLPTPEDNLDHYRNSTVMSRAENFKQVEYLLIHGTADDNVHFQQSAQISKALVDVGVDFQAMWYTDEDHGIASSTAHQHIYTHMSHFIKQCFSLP

For H-IIDKVGINY-OH [II], the “cellular activity (cell viability)” value ([1]; 0.5 mg/mL) was 90.34 ± 2.08%, the “cellular activity (cell viability)” value ([1]; 1 mg/mL) was 85.51 ± 3.52% and the DPP-IV inhibition rate [2] was 79.20 ± 2.20%. For the same substance, the “DPP-IV inhibitory effect, in words” value [2] was “significant enhancement of DPP-IV inhibitory activity; also recorded: strongest; also recorded: increased the hydrophobic force and inhibitory activity”.

For H-ILDKVGINY-OH [IL], the “cellular activity (cell viability)” value ([1]; 0.5 mg/mL) is listed as 91.91 ± 5.763%, the “cellular activity (cell viability)” value ([1]; 1 mg/mL) is listed as 86 ± 3.911% and the “DPP-IV inhibitory activity, in words” value ([3]; ref [23] in Table 1 for […] and […]) is listed as “displayed DPP-IV inhibitory activity”. For the same substance, the “resistance to digestion / activity after digestion, in words” value [4] was “high in content and resistance to digestion”, the “resistance to digestion / activity after digestion, in words” value ([4]; listed as ILDKVGINY) was “retaining its activity following digestion” and the DPP-IV inhibition rate [2] was 73.44 ± 2.23%.

In the case of H-IPDKVGINY-OH [IP], the “cellular activity (cell viability)” value ([1]; 0.5 mg/mL) is reported as 91.88 ± 5.385%, the “cellular activity (cell viability)” value ([1]; 1 mg/mL) is reported as 84.46 ± 2.928% and the DPP-IV inhibition rate [2] is reported as 60.37 ± 3.04%. For the same substance, the “DPP-IV inhibitory effect, in words” value [2] was “weakest; also recorded: lower inhibition rate”.

In the case of ILDKVGINYWLAHK, the “DPP-IV inhibitory activity, in words” value [3, 6] is given as “displayed DPP-IV inhibitory activity”.

In the case of VGINYWLAHK, the “DPP-IV inhibitory activity, in words” value [3, 6] is given as “displayed DPP-IV inhibitory activity”.

For “Val-Pro-Tyr-Pro-Gln [VPYPQ, casein-derived peptide]”, the “DPP-IV inhibitory activity, in words” value ([5]; among VPYPQ and its fragments) is given as “strongest DPP-IV inhibitory peptide” and the IC50 ([5]; casein-derived peptide, read-out: IC50 of DPP-IV inhibition) is given as 41.5 µM.
